We go through seven molecules from publication PMC6199744, “Development of Chemical Proteomics for the Folateome and Analysis of the Kinetoplastid Folateome” (ACS Infectious Diseases, 2018).

Common to all, as to assay type: binding
The target in experiment [1] is T1, HeLa cell extract proteins (Homo sapiens, UniProt O43615).
T1 construct: endogenous in cells; host or cells: HeLa cell extract
T1 sequence (O43615 1-452): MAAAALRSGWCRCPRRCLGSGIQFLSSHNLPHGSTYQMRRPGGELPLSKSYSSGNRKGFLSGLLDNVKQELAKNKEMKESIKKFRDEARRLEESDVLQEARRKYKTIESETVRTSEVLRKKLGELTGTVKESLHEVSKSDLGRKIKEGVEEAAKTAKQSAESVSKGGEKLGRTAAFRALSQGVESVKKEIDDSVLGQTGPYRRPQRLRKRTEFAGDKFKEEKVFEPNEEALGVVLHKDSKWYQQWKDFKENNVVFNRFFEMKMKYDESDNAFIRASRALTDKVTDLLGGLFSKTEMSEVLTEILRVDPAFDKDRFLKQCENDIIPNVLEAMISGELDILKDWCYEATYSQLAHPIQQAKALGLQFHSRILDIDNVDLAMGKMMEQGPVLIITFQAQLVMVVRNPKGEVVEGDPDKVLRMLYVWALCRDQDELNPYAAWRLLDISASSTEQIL
The note with it: protein TIMM44; HeLa.

Experiment [2] concerns the target T2, HeLa cell extract proteins (Homo sapiens, UniProt P48729).
T2 construct: endogenous in cells; host or cells: HeLa cell extract
The conditions noted are these: protein CSNK1A1; HeLa.

The target in experiment [3] is T3, HeLa cell extract proteins (Homo sapiens, UniProt P11498).
T3 construct: endogenous in cells; host or cells: HeLa cell extract
T3 sequence (P11498 21-1178): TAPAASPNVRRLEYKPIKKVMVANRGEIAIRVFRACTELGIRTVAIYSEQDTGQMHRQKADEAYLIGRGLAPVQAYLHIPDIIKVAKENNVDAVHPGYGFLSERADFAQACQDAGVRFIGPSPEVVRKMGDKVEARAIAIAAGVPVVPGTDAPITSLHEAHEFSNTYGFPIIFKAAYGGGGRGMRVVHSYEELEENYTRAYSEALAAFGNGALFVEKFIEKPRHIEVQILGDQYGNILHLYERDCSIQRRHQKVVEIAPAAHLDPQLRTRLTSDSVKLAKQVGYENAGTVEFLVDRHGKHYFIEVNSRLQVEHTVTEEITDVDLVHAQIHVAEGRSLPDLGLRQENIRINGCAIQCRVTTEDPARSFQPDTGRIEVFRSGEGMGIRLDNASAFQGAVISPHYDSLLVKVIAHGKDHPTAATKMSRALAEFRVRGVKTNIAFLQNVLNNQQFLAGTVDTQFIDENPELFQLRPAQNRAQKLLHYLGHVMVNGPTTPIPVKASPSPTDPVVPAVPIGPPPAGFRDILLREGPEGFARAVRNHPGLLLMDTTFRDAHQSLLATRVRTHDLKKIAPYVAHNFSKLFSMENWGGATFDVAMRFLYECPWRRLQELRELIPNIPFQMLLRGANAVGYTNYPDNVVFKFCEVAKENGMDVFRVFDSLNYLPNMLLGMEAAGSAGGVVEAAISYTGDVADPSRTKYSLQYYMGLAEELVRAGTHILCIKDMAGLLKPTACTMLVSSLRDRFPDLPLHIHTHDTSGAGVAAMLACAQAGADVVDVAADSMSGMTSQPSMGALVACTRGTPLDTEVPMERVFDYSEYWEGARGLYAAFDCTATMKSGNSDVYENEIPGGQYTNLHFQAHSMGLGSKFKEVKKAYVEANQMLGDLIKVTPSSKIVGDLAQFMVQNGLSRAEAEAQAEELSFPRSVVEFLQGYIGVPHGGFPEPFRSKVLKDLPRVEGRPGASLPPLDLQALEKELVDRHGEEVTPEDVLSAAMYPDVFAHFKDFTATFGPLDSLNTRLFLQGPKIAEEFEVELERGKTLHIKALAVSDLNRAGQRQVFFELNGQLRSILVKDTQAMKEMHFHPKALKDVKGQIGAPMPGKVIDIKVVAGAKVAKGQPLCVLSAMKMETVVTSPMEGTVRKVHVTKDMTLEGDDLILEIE

The target in experiment [4] is T4, HeLa cell extract proteins (Homo sapiens, UniProt O75718).
T4 construct: endogenous in cells; host or cells: HeLa cell extract
T4 sequence (O75718 27-401): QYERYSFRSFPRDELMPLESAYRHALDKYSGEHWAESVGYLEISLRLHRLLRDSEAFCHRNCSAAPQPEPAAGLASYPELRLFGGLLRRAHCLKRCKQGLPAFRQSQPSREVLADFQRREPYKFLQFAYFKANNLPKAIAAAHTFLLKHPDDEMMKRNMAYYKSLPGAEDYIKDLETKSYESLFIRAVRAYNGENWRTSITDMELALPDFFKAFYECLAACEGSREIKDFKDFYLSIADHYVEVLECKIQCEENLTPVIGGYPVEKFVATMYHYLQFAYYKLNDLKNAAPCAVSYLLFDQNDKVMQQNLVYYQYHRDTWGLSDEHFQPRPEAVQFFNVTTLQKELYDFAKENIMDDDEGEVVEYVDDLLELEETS

In experiment [5] the target is T5, HeLa cell extract proteins (Homo sapiens, UniProt Q9Y490).
T5 construct: endogenous in cells; host or cells: HeLa cell extract

The target of experiment [6] is T6, HeLa cell extract proteins (Homo sapiens, UniProt P30837).
T6 construct: endogenous in cells; host or cells: HeLa cell extract
T6 sequence (P30837 18-517): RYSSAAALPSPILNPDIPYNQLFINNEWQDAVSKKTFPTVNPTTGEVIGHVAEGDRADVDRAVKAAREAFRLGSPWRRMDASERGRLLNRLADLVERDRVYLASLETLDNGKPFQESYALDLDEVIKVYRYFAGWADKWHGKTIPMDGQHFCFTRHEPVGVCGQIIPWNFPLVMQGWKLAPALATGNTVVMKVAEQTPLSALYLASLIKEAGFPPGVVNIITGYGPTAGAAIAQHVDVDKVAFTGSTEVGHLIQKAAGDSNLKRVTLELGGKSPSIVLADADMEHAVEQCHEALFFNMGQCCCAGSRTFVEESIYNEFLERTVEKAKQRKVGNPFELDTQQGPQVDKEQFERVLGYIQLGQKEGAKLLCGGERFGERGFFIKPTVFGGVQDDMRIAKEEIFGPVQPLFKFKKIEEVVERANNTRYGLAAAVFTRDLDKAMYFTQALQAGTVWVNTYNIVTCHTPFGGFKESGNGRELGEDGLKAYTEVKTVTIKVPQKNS

Read-outs that look alike come from different tables or passages of the source.

T5 sequence (Q9Y490 whole entry): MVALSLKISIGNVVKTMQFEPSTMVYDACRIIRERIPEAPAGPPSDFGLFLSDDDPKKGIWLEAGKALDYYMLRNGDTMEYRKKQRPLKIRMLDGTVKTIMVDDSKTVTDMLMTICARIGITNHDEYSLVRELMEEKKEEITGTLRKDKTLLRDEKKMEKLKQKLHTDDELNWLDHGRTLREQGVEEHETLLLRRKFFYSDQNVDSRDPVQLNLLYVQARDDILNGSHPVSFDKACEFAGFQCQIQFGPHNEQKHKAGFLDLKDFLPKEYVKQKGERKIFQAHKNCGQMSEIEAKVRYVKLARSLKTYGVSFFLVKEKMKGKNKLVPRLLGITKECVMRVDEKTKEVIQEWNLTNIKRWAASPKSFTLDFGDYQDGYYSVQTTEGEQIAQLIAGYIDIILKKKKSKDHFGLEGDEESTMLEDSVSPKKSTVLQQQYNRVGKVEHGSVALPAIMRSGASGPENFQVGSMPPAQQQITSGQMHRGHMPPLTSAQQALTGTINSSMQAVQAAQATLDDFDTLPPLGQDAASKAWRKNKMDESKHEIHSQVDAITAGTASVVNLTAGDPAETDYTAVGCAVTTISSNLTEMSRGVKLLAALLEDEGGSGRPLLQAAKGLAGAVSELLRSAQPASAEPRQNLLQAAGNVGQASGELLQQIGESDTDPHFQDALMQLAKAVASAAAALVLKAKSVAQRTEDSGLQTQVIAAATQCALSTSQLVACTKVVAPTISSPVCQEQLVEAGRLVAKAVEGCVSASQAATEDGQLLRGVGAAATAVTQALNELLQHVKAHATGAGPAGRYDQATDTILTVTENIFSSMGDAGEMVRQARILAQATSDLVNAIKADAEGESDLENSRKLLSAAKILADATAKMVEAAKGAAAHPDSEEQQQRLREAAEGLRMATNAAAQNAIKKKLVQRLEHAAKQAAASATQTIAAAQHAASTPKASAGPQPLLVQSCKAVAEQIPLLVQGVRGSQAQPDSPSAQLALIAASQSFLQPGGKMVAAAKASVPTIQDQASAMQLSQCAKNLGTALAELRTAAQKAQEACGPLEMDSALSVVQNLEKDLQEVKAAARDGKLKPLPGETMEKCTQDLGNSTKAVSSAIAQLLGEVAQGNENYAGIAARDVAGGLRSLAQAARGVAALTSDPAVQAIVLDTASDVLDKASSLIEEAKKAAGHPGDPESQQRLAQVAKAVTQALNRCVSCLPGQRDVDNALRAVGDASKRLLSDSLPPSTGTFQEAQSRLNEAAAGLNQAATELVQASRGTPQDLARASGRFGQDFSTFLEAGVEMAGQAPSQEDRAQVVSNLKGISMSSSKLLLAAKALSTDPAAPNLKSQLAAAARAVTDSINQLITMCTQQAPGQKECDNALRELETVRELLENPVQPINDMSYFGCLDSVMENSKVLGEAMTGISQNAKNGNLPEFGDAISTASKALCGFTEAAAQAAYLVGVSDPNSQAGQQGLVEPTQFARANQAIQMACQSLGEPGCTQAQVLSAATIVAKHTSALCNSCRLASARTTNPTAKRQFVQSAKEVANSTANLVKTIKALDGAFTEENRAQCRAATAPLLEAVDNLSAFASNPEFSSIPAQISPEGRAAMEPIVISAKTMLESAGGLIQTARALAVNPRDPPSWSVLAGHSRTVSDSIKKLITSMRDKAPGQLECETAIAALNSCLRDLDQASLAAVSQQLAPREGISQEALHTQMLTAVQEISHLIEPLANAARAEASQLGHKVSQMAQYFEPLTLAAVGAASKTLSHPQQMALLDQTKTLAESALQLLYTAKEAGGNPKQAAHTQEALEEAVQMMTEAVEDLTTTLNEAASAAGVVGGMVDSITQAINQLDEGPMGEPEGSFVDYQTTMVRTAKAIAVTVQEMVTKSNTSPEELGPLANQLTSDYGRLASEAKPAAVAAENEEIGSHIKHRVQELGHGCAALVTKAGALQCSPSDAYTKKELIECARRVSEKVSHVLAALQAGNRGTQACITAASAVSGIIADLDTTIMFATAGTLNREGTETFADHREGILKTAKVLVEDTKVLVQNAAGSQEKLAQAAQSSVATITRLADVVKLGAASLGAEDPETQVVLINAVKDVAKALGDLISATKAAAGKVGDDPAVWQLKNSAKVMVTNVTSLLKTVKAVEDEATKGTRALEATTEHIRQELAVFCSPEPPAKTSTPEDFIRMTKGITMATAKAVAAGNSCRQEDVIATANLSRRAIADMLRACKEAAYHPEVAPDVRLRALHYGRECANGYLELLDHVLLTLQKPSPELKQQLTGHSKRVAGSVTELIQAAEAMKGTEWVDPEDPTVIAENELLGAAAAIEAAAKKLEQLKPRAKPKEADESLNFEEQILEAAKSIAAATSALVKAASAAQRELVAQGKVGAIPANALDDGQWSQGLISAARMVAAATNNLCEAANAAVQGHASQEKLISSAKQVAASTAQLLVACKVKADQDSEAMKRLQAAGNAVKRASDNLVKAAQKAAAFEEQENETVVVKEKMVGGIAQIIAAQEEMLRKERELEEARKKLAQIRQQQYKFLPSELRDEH
T2 sequence (P48729 whole entry): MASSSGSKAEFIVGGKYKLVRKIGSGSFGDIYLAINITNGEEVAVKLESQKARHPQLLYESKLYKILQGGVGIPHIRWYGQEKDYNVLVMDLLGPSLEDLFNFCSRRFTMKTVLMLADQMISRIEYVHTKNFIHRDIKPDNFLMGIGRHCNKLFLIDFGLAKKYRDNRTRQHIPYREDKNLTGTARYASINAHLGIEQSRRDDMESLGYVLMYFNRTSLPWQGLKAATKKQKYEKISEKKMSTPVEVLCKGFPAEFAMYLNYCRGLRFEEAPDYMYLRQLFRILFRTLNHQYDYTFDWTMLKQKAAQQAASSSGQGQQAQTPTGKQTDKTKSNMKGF

For `CCCCCCOc1cccc(Cc2cnc(N)nc2N)c1` [compound 2], the entries for the “fold changes relative to vehicle control” value in experiment [1] and in experiment [2] were 1.29 and 1.17, respectively.

In the case of `NCCOCCOCC(=O)Nc1nc2ncc(CNc3ccc(C(=O)NC(CCC(=O)O)C(=O)O)cc3)nc2c(=O)[nH]1` (stereo not shown) [compound 6], the “fold changes relative to vehicle control” value amounted to 0.97 in experiment [3] (protein PC, HeLa); 0.86 in experiment [4] (protein CRTAP, HeLa); 0.72 in experiment [5] (protein TLN1, HeLa); 1.06 in experiment [6] (HeLa, captured protein ALDH1B1).

As to `CCCCCCOc1ccc(Cc2cnc(N)nc2N)cc1` [compound 1], the results for the “fold changes relative to vehicle control” value in experiment [1] and in experiment [2] were 1.06 and 0.93, respectively.

Regarding `Nc1nc2c(c(=O)[nH]1)N(C=O)C(CNc1ccc(C(=O)N[C@@H](CCC(=O)O)C(=O)O)cc1)CN2` (stereo partly shown) [LEU, leucovorin], the “fold changes relative to vehicle control” value in experiment [3] (protein PC, HeLa) came to 0.8; in experiment [4] (protein CRTAP, HeLa), 0.85; in experiment [5] (protein TLN1, HeLa), 0.67; in experiment [6] (HeLa, captured protein ALDH1B1), 1.03.

For `NCCCNc1ccc(C(=O)NC(CCC(=O)O)C(=O)O)cc1` (stereo not shown) [compound 7], the “fold changes relative to vehicle control” value in experiment [3] (protein PC, HeLa) is given as 1.1; in experiment [4] (protein CRTAP, HeLa), 0.91; in experiment [5] (protein TLN1, HeLa) it was 0.78; in experiment [6] (HeLa, captured protein ALDH1B1), 0.95.

Consider `Nc1nc2[nH]cc(CCc3ccc(C(=O)N[C@@H](CCC(=O)O)C(=O)O)cc3)c2c(=O)[nH]1` [PTX, pemetrexed], for which the “fold changes relative to vehicle control” value in experiment [3] was 0.69; in experiment [4], 0.82; in experiment [5] it was 1.01; in experiment [6], 0.93.

`Nc1nc2cccc(-c3ccccc3)c2n1Cc1ccc(Cl)c(Cl)c1` [compound 3]: the results for the “fold changes relative to vehicle control” value in experiment [1] and in experiment [2] were 1.03 and 1.06, respectively.
